Experimental data: US20230033195A1, “METHODS AND COMPOSITIONS FOR IMPROVING COGNITIVE FUNCTION” (THE JOHNS HOPKINS UNIVERSITY, priority 2011, published 2023)
Like-named read-outs stand apart in the source and are kept apart here.

Key:
[1] = tested on: entorhinal cortex (EC) of aMCI subjects; test: fMRI activity during lure stimuli correctly identified as similar, entorhinal cortex; type: in vivo, human; details: 125 mg twice a day for two weeks
Experimental: FIG. 9B depicts the average activity in the left entorhinal cortex of the same aMCI subjects with placebo treatment or levetiracetam treatment (125 mg twice a day for two weeks) during the presentation of lure stimuli that the subject correctly identified as "similar."
A within-subjects trial of 8 weeks duration, involving 17 amnestic MCI (aMCI) subjects and 17 age-matched controls with a low dose treatment of levetiracetam is conducted. During the course of the study, each aMCI subject receives both drug and placebo treatments separately in two periods of two weeks each, with the order of treatments among different aMCI subjects counterbalanced (see FIG. 7). Age-matched control subjects treated with placebo serve as a further control. Cognitive testing and fMRI imaging data are obtained from the subjects after each two week period of drug/placebo treatment.
Imaging data are obtained through high-resolution methods developed in the Stark laboratory. Data are collected on a Phillips 3 Tesla scanner (Eindhoven, The Netherlands) equipped with an 8-channel SENSE (Sensitivity Encoding) head coil, located at the F.M. Kirby Research Center for Functional Brain Imaging at the Kennedy Krieger Institute (Baltimore, MD). […]
Group data are analyzed using a two-way Analysis of Variance (ANOVA) with trial types and group as fixed factors, and subject as a random factor nested within group. […]

aMCI subjects = test: neuropsychological tests outside the scanner; type: in vivo, human; details: 125 mg twice a day for two weeks, vs placebo
Experimental: A within-subjects trial of 8 weeks duration, involving 17 amnestic MCI (aMCI) subjects and 17 age-matched controls with a low dose treatment of levetiracetam is conducted. During the course of the study, each aMCI subject receives both drug and placebo treatments separately in two periods of two weeks each, with the order of treatments among different aMCI subjects counterbalanced (see FIG. 7). Age-matched control subjects treated with placebo serve as a further control. Cognitive testing and fMRI imaging data are obtained from the subjects after each two week period of drug/placebo treatment. All participants undergo neuropsychological evaluation at the time of assessment for treatment efficacy (Visits 1 and 2), as well as at the Baseline Visit. The evaluation occurs outside of the scanner and includes the Buschke Selective Reminding Test (Buschke and Fuld, 1974) and the Verbal Paired Associates subtest, the Logical Memory subtest, the Visual Reproduction subtest of the Wechsler Memory Scale-Revised (WMS-R) (Wechsler, 1997), and the Benton Visual Retention Test, as these tasks are particularly sensitive to medial temporal lobe function and early memory problems (Marquis et al., 2002 and Masur et al., 1994). Additionally, subjects are asked to complete tests of more general cognitive function such as tests to assess general mental status, executive function, attention and general naming ability. All neuropsychological tests are administered by a trained research assistant during a 60-minute session. As the three neuropsychological assessments in this study occur within a time period of 8 weeks, different versions of the neuropsychological tests are used to minimize test specific practice effects. Breaks are provided to the subject as needed.

[2] = cited from earlier work

CC[C@@H](C(N)=O)N1CCCC1=O [levetiracetam, (2S)-2-(2-oxopyrrolidin-1-yl) butanamide]
EC activity compared with placebo-treated control subjects [1]: statistically indistinguishable
EC activity during memory judgments, vs placebo treatment [1]: increases EC activity
Benton Visual Rentention Test performance (aMCI subjects): fail to rescue performance
Buschke Selective Reminding Test - Delayed Recall performance (aMCI subjects): fail to rescue performance
Verbal Paired Associates Test - Delayed Recall performance (aMCI subjects): fail to rescue performance
Verbal Paired Associates Test - Recognition performance (aMCI subjects): fail to rescue performance
absorption ([2]; after oral administration): rapidly and almost completely absorbed
plasma half-life ([2]; expected in elderly due to decreased renal function): 9 to 10 h
time of peak plasma concentrations ([2]; following oral administration): about 1 hour
plasma half-life ([2]; in vivo): approximately 7 ± 1 hour
time to steady state ([2]; multiple twice-daily dosing): 2 days
effect of food on bioavailability ([2]; oral administration): not affected by food
